Measurements from PubChem BioAssay (NCI).
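Step 1: Grow cells in 96-well plates. Step 2: Expose to compound for 48 hours at 5 concentrations. Step 3: Interpolate endpoints linearly; if unreached, use highest concentration. TGI is the concentration that stops growth completely.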 Where a SMILES comes first, the peptide text is derived from it. [ ]: non-standard residue; d: D form. The star is where a group is joined. ξ: configuration not given here. dThr(3ξ) = CC(O)[C@@H](N)C(=O)O; dNMeL = CN[C@H](CC(C)C)C(=O)O; OBn = c1ccc(CO*)cc1; ξLac = CC(O)C(=O)O

How the values were obtained:
Assay in all cases: DTP human tumour cell line panel, 48 h
[1] = tested on: KM12 colon
[2] = tested on: UACC-257 melanoma
[3] = tested on: UO-31 renal
[4] = tested on: SK-MEL-2 melanoma
[5] = tested on: SNB-75 CNS
[6] = tested on: EKVX NSCLC
[7] = tested on: OVCAR-5 ovarian
[8] = tested on: SK-MEL-28 melanoma
[9] = tested on: NCI-H522 lung
[10] = tested on: OVCAR-4 ovarian
[11] = tested on: CAKI-1 renal
[12] = tested on: MALME-3M melanoma
[13] = tested on: SK-MEL-5 melanoma
[14] = tested on: SK-OV-3 ovarian
[15] = tested on: K-562 leukemia
[16] = tested on: CCRF-CEM leukemia
[17] = tested on: SNB-19 CNS
[18] = tested on: HCT-116 colon
[19] = tested on: SF-539 CNS
[20] = tested on: TK-10 renal

| Compound | TGI [1] [µM] | TGI [2] [µM] | TGI [3] [µM] | TGI [4] [µM] | TGI [5] [µM] | TGI [6] [µM] | TGI [7] [µM] | TGI [8] [µM] | TGI [9] [µM] | TGI [10] [µM] | TGI [11] [µM] | TGI [12] [µM] | TGI [13] [µM] | TGI [14] [µM] | TGI [15] [µM] | TGI [16] [µM] | TGI [17] [µM] | TGI [18] [µM] | TGI [19] [µM] | TGI [20] [µM] |
| --- | --- | --- | --- | --- | --- | --- | --- | --- | --- | --- | --- | --- | --- | --- | --- | --- | --- | --- | --- | --- |
| O=C(c1cccc(OCc2ccccc2)c1OCc1ccccc1)N1CCSC1=S | 36.9 | > 87.7 | 97.2 | > 75.4 | 34.2 | > 100 | > 100 | > 100 | > 58.1 | > 100 | > 92.9 | > 72.9 | 31.7 | > 100 | > 100 | 24.4 | > 100 | > 100 | > 100 | > 100 |
| CCOC(=O)C(Cc1ccccc1)NC(=O)c1ccc(N=NN(C)C)cc1 (stereo not given) | > 100 | > 100 | > 100 | > 100 | > 100 | > 100 | > 100 | > 100 | > 100 | > 100 | > 100 | > 100 | > 100 | > 100 | > 100 | > 100 | > 100 | > 100 | > 100 | > 100 |
| CCOC(=O)C(Cc1c2ccccc2cc2ccccc12)(NC(C)=O)C(=O)OCC | > 100 | > 100 | > 100 | > 100 | > 80.6 | > 100 | > 100 | > 100 | > 100 | > 100 | > 100 | > 100 | > 100 | > 100 | > 100 | > 100 | > 100 | > 100 | > 100 | > 100 |
| O=S(=O)(N=S(c1ccc(Cl)cc1)c1ccc(Cl)cc1)c1ccccc1 | > 100 | > 100 | > 100 | > 100 | > 100 | > 100 | > 100 | > 100 | > 100 | > 100 | > 100 | > 100 | > 100 | > 100 | > 100 | > 100 | > 100 | > 100 | > 100 | > 100 |
| CCCCCCCC/C=C\CCCCCCC(F)C(=O)O (stereo not given) | > 12.5 | > 12.5 | > 12.5 | > 12.5 | > 12.5 | > 12.5 | > 12.5 | > 12.5 | > 12.5 | > 12.5 | > 12.5 | > 12.5 | > 12.5 | > 12.5 | > 12.5 | > 12.5 | > 12.5 | > 12.5 | > 12.5 | > 12.5 |
| NC1CC(=O)c2c(Cl)sc(Cl)c21 (stereo not given) | 12.8 | 7.27 | 20.3 | 25 | 26.1 | 5.07 | 42.9 | 4 | 2.89 | 16 | 6.1 | 4.66 | 22.9 | 26.4 | 75 | 2.94 | 42.2 | 4.49 | 8.85 | 6.26 |
| COC(=O)c1ccc(N=NN(C)COc2ccc(C#N)cc2)cc1 | > 100 | > 100 | > 100 | > 100 | > 100 | > 100 | > 100 | > 100 | > 100 | > 100 | > 100 | > 100 | > 100 | > 100 | > 100 | > 100 | > 100 | > 100 | > 100 | > 100 |
| CC(=O)OC(C)[C@@H](NC(=O)[C@@H](CC(C)C)N(C)C(=O)[C@@H]1CCCN1C(=O)C(C)O)C(=O)OCc1ccccc1 (stereo not given in full) (H-[ξLac]P[dNMeL][dThr(3ξ)](Ac)-OBn) | > 100 | > 100 | > 100 | > 100 | > 100 | > 100 | > 100 | > 100 | > 100 | > 100 | > 100 | > 100 | > 100 | > 100 | > 100 | > 100 | > 100 | > 100 | > 100 | > 100 |
| Cc1ccc2c(c1)C(=O)C(Cc1ccccc1C(=O)O)C2 (stereo not given) | > 100 | > 100 | > 100 | > 100 | > 100 | > 100 | > 100 | > 100 | > 100 | > 100 | > 100 | > 100 | > 100 | > 100 | > 100 | > 100 | > 100 | > 100 | > 100 | > 100 |
